Data on two substances can be found in US9365851B2, “Spalt-like transcription factor 4 (SALL4) and uses thereof” (National University of Singapore, priority 2011, dated 2016).

One series relates to primary human AML cells. Description: Xenotransplantation of shRNA-transduced primary human AML cells into NSG mice. In kind it is in vivo. The source says: The phenotype of wt peptide treatment was then compared with that of downregulation of SALL4 in primary AML cells. SALL4-specific shRNA (7210 and 7412, FIG. 6A) validated by previous studies were used for these experiments. FACS analysis with Annexin V/PI staining confirmed that there was a 2-fold increase in cell apoptosis and cell death in vitro in primary AML cells when SALL4 expression was reduced (FIG. 6B). In addition, there was an increased survival of leukemic recipient mice in vivo upon knocking down of SALL4 expression in these primary AML samples (FIG. 6C). 1.5×10^6 SALL4 shRNA or control retrovirus-treated primary human AML cells were transplanted into sublethally irradiated (1.0 Gy) NOD/SCID/IL2rγ-null mice by tail vein injection. Fatal AML with onset ranging from one to three months developed in all control recipient (7 out of 7) and some SALL4 shRNA recipient (2 out of 6) mice after transplantation. The transplanted leukemia disease was characterized by immature blasts with human CD45 expression in peripheral blood, bone marrow, and tissues such as liver and spleen (FIGS. 6C-6F). […] While the median survival of control recipient mice (N=7) was 33 days, the median survival of SALL4 shRNA recipient mice (N=6) was 109 days. Both the Log rank (also called Mantel-Cox, P=0.03 (FIG. 4H) and Gehan-Breslow-Wilcoxon (P=0.01)) tests were used for survival analysis and were statistically significant.
NSG (NOD.Cg-Prkdcscid Il2rgtm 1Wjl/SzJ, The Jackson Laboratory, ME, USA) mice were bred and maintained in the Children's Hospital Boston animal facility. All animal work has been approved by and done according to the guidelines of the IACUC under protocol 10-10-1832. Human primary AML cells exposed to various peptides or carrier only (1.0×10^6 cells per mouse) or transduced with SALL4-shRNA or control lentivirus (1.5×10^6 cell per mouse) were transplanted into 10- to 12-week old mice received 135 cGy sublethal irradiation 2-4 h before the injection via the dorsal tail vein. Mice were euthanized when they became ill or at 78 days post-transplantation. BM was removed from the two femurs by flushing with RPMI1640 medium, spleen cells were abstained by mincing and filtering through a cell strainer and peripheral blood was collected from the heart. […] The percentage of human CD45+ cells was calculated as follows: % human CD45+ cells=No. human CD45+ cells/(No. human CD45+ cells+No. mouse CD45+ cells)×100. […]
SALL4 is critical for leukemic cell survival in the AML cell line NB4 (Yang, et al., Blood, 112:805-813 (2008)). […] 48 hours after transduction, the viability of cells was determined by flow cytometry after staining with Annexin V and propidium iodide (PI). […]

The next series relates to SNU-398. Briefly: Cellular uptake of FITC-labeled peptide. It is filed as cell-based, human. The procedure:
Cells were grown typically in 6 well plates (35 mm dish) to 50-70% confluence. Usually the transfect ion efficiency is somehow cell type specific. 2 mM peptide was diluted 4 times in PBS (2 ul+6 ul) (For FITC peptidedo not dilute the 2 mM stock). For each transfection reaction tube with 100 ul PBS+1 ul diluted peptide was set up. Chariot reagent was diluted 1:10 in ddH2O and for each transfection a 94 ul H2O tube+6 ul diluted Chariot was prepared (No master mix for more than 4 transfections). The 2 tubes were carefully mixed by pipetting up and down and incubated 30 min. at room temperature. Medium was aspirated from the dish (well) and cells were overlay with the mix. 400 ul serum free medium was added and cells were incubated further for 1 h 37 C (cell incubator). 500 ul complete medium (with 10% serum) was finally added. If cells are not very sensitive to serum starvation (cancer cell lines) 5% serum could be used.
Fluorescent and Confocal microscopy was performed on cells treated with FITC labeled peptides with or without of transfection reagent depending on the cell type. Cells were mounted on cover slips using mounting media with DAPI (Invitrogen) and in some cases cytoskeleton dye (Invitrogen).
In order to evaluate their cellular uptake and localization, the N terminus of these peptides was labeled with fluorescein isothiocyanate (FITC). Despite the net positive charge of these peptides, their uptake by the cells is cell-type specific. Some cell lines such as HL-60 (an AML cell line) allowed the peptide to enter the cells without any modification or carrier, and some cell lines were not penetrable at all. In order to achieve a similar level of peptide delivery in most cell types, a Chariot Transfection Reagent (Active Motif) was used as a peptide carrier, as directed from the manufacturer. All cell types used in the study described herein were subjected to individual evaluation of the percentage of the cells in which the peptide was delivered as well as the duration of time during which they sustained the labeled peptide in the cells. After Chariot treatment, confocal microscopy studies confirmed uptake of these peptides throughout the cell, including nuclei (as evidenced by DAPI overlay, FIG. 1B).
Next tested was the cellular uptake and localization of these peptides in various types of cells using FITC-labeled wild type or scrambled peptides. Despite the net positive charge of these peptides, their penetration into cells is cell type-specific. Some cell lines, such as HL-60 (an AML cell line), allowed peptide entry without any modification or facilitator, while others such as SNU-398 were not penetrable at all. […] The overall success rate of peptide uptake by the cells was above 95% with Pep-1, as evaluated by flow cytometry (FIG. 9A). […]

Turning to “GATGCCTTGAAACAAGCCAAGCTACCTCA (chemistry not given here) [compound 7412, SALL4 shRNA used in primary AML cells]”, the “recipient mice without leukemia / still healthy” value in the series with primary human AML cells (four months after transplantation) is on record as “four out of six”. Further, the “recipient mice that developed fatal AML / leukemia” value in the series with primary human AML cells (mouse, in vivo) is given as 2 out of 6. Further, in the series on primary human AML cells (peripheral blood, bone marrow or spleen), the “human CD45 positive cells in non-leukemic recipients” value is listed as “less than 0.5%”. Also, in the series with primary human AML cells (transduced primary human AML cells, tail vein), the “median survival of recipient mice” value is recorded as 109 days.

For “H-MSRRKQAKPQHI-OH [wt peptide, MSRRKQAKPQHI]”, the “peptide uptake (cells with peptide)” value with SNU-398 (SNU-398, no carrier) is 0%; in the series with SNU-398 (SNU-398, with Chariot), 40%. In addition, the “cells showing FITC-labeled peptide uptake” value in the series with SNU-398 (SNU-398, with Pep-1 carrier, flow cytometry) is “Over 90%”.
